# Laboratory results reported in patent publication US20110306579A1, “METHODS OF NEUROPROTECTION USING NEUROPROTECTIVE STEROIDS AND A VITAMIN D” (EMORY UNIVERSITY, priority 2009, published 2011).
# Experiments:
# [1] = tested on: E18 rat primary cortical neurons; test: Glutamate-induced excitotoxic cell death (LDH release and MTT reduction assays); type: cell-based
# Excerpt: Lactate dehydrogenase (LDH) release and 3-(4,5-dimethylthiazol-2-yl)-2,5-diphenyltetrazolium bromide (MTT) reduction assays were used to measure cell death. NeuroPureTM E18 primary rat cortical cells were commercially procured (Catalogue # N200200, Genlantis, San Diego, Calif., USA) as micro-surgically dissected regions from day 18 embryonic Sprague-Dawley rat brain. The tissues were processed for culturing according to manufacturer specifications. Briefly, enzymatic pre-treatment of the tissue was done prior to mechanical dissociation by incubating the tissues in sterile NeuroPapain enzyme solution at 30° C. for 30 minutes. Following incubation, the cells were centrifuged and transferred to fresh plating medium, where they were then dissociated into isolated neurons using a P-1000 pipettor with a sterile 1 ml plastic tip (0.8-1.0 mm diameter opening). The cells were again centrifuged and seeded in multi-well plates pre-coated with poly-D-lysine (0.15 ml/cm^2, 50 μg/ml) and maintained at 37° C. in a humidified 5% CO2 atmosphere. All experiments were performed after 9-10 days in culture. Twenty-four hours before glutamate exposure, cultures were pre-treated with both PROG (Cat. #P3972; Sigma Aldrich, St. Louis, Mo., USA) and VDH(Cat. #D1530; Sigma) separately or in combination with VDH at various concentrations. Stock solutions of PROG and VDH were prepared in dimethylsulfoxide (DMSO; Cat. #D2650; […] Glutamate was diluted in phosphate-buffered saline (PBS, pH 7.4). All reagents were filter sterilized before being added to cultures. At Day 11, cortical neurons in fresh media were separated into five treatment groups: (i) control; (ii) 24 hour treatment with 0.5 μM glutamate (Sribnick E A, et al., (2004) J Neurosci Res 76: 688-696); ([…]) with subsequent exposure to glutamate for 24 hours; (iv) 24 hour pre-treatment with VDH (1, 5, 10, 20, 40, 80, 100 nM) with subsequent exposure to glutamate for 24 hours; (v) 24 hour pre-treatment with different combinations of PROG and […]: 20 μM+VDH: 1, 5, 10, 20, 40, 80, 100 nM) with subsequent exposure to glutamate for 24 hours. Two widely accepted assays (LDH release and MTT reduction assay) for the measurement of cell viability were used. These assays are considered very reliable and reproducible with high predictive validity and are widely used in various pharmacological studies ([…], et al., (2002) Endocrinology 143: 205-212.). The LDH assay was performed as follows. […] LDH activity was measured using a Cytotoxicity Detection Kit (Roche Molecular Biochemicals, Indianapolis, Ind., USA) and quantitated by measuring absorbance at 490 nm. Data were normalized against the amount of LDH activity released from vehicle-treated control cultures receiving no glutamate. Neuronal death was also assessed by MTT [3-(4,5-dimethylthiazol-2-yl)-2,5-diphenyltetrazolium bromide] assay, which is based on the cleavage of the tetrazolium ring of the pale yellow MTT into dark blue formazan crystals by mitochondrial dehydrogenase enzyme in viable cells. These blue formazan crystals accumulate within the cells due to their impermeability to cell membrane, and are then solubilized by adding DMSO. The intensity of blue colored formazan solution is directly proportional to the number of surviving cells. Concentrations were determined by photometric analysis. Briefly, 10 μl of MTT were added per well and incubated at 37° C. for 4 hours until purple precipitate was visible. DMSO (50 μl) was added to solubilize the crystals and the absorbance was read at 570 nm.
# [2] = tested on: E18 rat primary cortical neurons; test: Morphological analysis of cortical cultures (phase contrast); type: cell-based; conditions: glutamate 0.5 μM for 24 h; data not shown
# Excerpt: Changes in the morphology of neurons treated with different drugs in various groups were observed using a phase-contrast microscope (Nikon). Primary cultures were mainly observed for neurite outgrowth, a hallmark feature of healthy cells, and the density of healthy cells in different groups.
# MAPK (ERK1/2) = test: MAPK phosphorylation (p-ERK1/2 Western blot) in primary cortical neurons; type: cell-based, rat; conditions: PROG 20 μM, 30-minute treatment
# Procedure: PROG and VDH were added to the primary cultures, as described above, for 30 minutes ([…], et al., (2002) Endocrinology 143: 205-212) and the cells were lysed using RIPA lysis buffer kit (sc-24948, Santa Cruz, Calif., USA). Protein was determined in cell lysates by bicinchoninic acid (BCA) protein assay (Cat. # 23225, Pierce, Rockford, Ill., USA). Cell lysates (40 μg protein each sample) were separated under reducing and denaturing conditions by 12.5% acrylamide Criterion gel (BioRad, Hercules, Calif., USA) at 200V for 1 hour and transferred to a polyvinylidene difluoride (PVDF) membrane at 100V for 30 minutes. The non-specific binding sites of the membrane were blocked with 5% non-fat dry milk in PBS-T (phosphate buffered saline containing 0.05% Tween-20). […] Membranes were then incubated in horseradish peroxidase (HRP)-conjugated secondary antibody (Goat anti-rabbit IgG; 074-1506, KPL, Gaithersburg, Md., USA). β-actin was probed as a loading control. Blots were developed using a chemiluminescent substrate (Pierce) for 5 minutes.
smiles,measurement,setting,value
CC(=O)[C@H]1CCC2C3CCC4=CC(=O)CC[C@]4(C)C3CC[C@@]21C (some centres unmarked) [progesterone],best (most effective) concentration alone against glutamate-induced neuronal death,[1]; LDH and MTT assays,20 µM
same,glutamate-induced cell death compared to vehicle-only group,"[1]; PROG at higher concentrations (10, 20, 40, and 80 μM), LDH and MTT assays, P<0.001",significant reduction
same,glutamate-induced cell death compared to vehicle-only group,"[1]; PROG at lower concentrations (0.01, 0.1, 1, 5 μM), 24 h pre-treatment, glutamate 0.5 μM 24 h",did not show any decrease in cell death
same,"morphology of neurons (neuronal processes, number of neurons) after glutamate",[2],rescued neurons
same,increase in p-ERK1/2 level compared to control group,MAPK (ERK1/2),2 ×
